Reference: patent US10865208B2, “ATG7 inhibitors and the uses thereof” (Millennium Pharmaceuticals, Inc., priority 2016, dated 2020)
Values belong to the molecule of their own block, whether it stands above or below them.

Biological target: recombinant human His-ATG7 enzyme (Homo sapiens (Human), UniProt O95352)
Assay: ATG7 Enzyme Assay (HTRF/FRET, ATG3-GST and Flag-Gabarap)
Assay type: biochemical
Conditions: for inhibition at 0.111 µM: Concentration 0.111 μM
Summary of the method: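 0.15 nM His-ATG7 was reacted with 5 nM ATG3-GST, 5 nM Flag-Gabarap and 10 μM ATP in HEPES pH 7.5 containing MgCl2, GSH and TCEP for 105 min at 24° C, then stopped with EDTA/KF. Eu-anti-Flag and anti-GST-APC HTRF was read after 2 h. Results are given as single-concentration % inhibition or IC50.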

Chain of recombinant human His-ATG7 enzyme (O95352 whole entry): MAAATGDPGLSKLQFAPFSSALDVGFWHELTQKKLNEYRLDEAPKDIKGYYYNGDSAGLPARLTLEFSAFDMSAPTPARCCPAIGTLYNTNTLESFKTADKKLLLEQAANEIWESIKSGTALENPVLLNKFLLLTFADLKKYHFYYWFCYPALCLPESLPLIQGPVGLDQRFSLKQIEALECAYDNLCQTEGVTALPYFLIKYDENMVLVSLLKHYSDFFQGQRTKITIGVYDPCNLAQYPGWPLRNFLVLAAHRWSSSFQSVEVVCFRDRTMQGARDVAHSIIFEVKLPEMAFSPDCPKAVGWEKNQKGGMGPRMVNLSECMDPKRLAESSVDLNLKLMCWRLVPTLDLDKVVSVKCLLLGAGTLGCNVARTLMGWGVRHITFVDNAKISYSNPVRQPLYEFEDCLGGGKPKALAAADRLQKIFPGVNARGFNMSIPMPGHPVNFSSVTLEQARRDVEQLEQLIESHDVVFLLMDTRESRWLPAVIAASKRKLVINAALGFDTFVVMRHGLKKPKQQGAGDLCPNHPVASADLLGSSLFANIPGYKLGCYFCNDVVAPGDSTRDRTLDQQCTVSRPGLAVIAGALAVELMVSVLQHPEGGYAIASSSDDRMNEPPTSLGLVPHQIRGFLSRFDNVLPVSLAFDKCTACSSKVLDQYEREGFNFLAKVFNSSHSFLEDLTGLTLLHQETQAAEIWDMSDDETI

SMILES: CSc1nn([C@@H]2O[C@H](COS(N)(=O)=O)[C@@H](O)[C@@H]2F)c2ncnc(N)c12 [Compound I-115, {(2R,3R,4S,5R)-5-[4-amino-3-(methylsulfanyl)-1H-pyrazolo[3,4-d]pyrimidin-1-yl]-4-fluoro-3-hydroxytetrahydrofuran-2-yl}methyl Sulfamate]
IC50: 20 to 50 nM | inhibition at 0.123 µM (Concentration 0.123 μM, read-out: Percent Inhibition): 73%

SMILES: Nc1ncnc2c1c(Sc1cccc(F)c1)nn2[C@@H]1O[C@H](COS(N)(=O)=O)[C@@H](O)[C@@H]1F [Compound I-116, [(2R,3R,4S,5R)-5-{4-amino-3-[(3-fluorophenyl)sulfanyl]-1H-pyrazolo[3,4-d]pyrimidin-1-yl}-4-fluoro-3-hydroxytetrahydrofuran-2-yl]methyl sulfamate]
IC50: 20 to 50 nM | inhibition at 0.111 µM (read-out: Percent Inhibition): 75%

SMILES: Nc1ncnc2c1c(SCc1ccccn1)nn2[C@@H]1O[C@H](COS(N)(=O)=O)[C@@H](O)[C@@H]1F [Compound I-119, [(2R,3R,4S,5R)-5-{4-amino-3-[(pyridin-2-ylmethyl)sulfanyl]-1H-pyrazolo[3,4-d]pyrimidin-1-yl}-4-fluoro-3-hydroxytetrahydrofuran-2-yl]methyl sulfamate]
IC50: 50 to 100 nM | inhibition at 0.111 µM (read-out: Percent Inhibition): 65%

SMILES: CCC(CC)Sc1nn([C@@H]2O[C@H](COS(N)(=O)=O)[C@@H](O)[C@@H]2F)c2ncnc(N)c12 [Compound I-120, {(2R,3R,4S,5R)-5-[4-amino-3-(pentan-3-ylsulfanyl)-1H-pyrazolo[3,4-d]pyrimidin-1-yl]-4-fluoro-3-hydroxytetrahydrofuran-2-yl}methyl sulfamate]
IC50: 100 to 500 nM | inhibition at 0.111 µM (read-out: Percent Inhibition): 46%

SMILES: Nc1ncnc2c1c(SCc1ccncc1)nn2[C@@H]1O[C@H](COS(N)(=O)=O)[C@@H](O)[C@@H]1F [Compound I-124, [(2R,3R,4S,5R)-5-{4-amino-3-[(pyridin-4-ylmethyl)sulfanyl]-1H-pyrazolo[3,4-d]pyrimidin-1-yl}-4-fluoro-3-hydroxytetrahydrofuran-2-yl]methyl sulfamate]
IC50: 50 to 100 nM | inhibition at 0.111 µM (read-out: Percent Inhibition): 52%

SMILES: Nc1ncnc2c1c(SCc1cccnn1)nn2[C@@H]1O[C@H](COS(N)(=O)=O)[C@@H](O)[C@@H]1F [Compound I-127, [(2R,3R,4S,5R)-5-{4-amino-3-[(pyridazin-3-ylmethyl)sulfanyl]-1H-pyrazolo[3,4-d]pyrimidin-1-yl}-4-fluoro-3-hydroxytetrahydrofuran-2-yl]methyl sulfamate]
IC50: 50 to 100 nM | inhibition at 0.111 µM (read-out: Percent Inhibition): 61%

SMILES: N#Cc1ccnc(Sc2nn([C@@H]3O[C@H](COS(N)(=O)=O)[C@@H](O)[C@@H]3F)c3ncnc(N)c23)c1 [Compound I-130, [(2R,3R,4S,5R)-5-{4-amino-3-[(4-cyanopyridin-2-yl)sulfanyl]-1H-pyrazolo[3,4-d]pyrimidin-1-yl}-4-fluoro-3-hydroxytetrahydrofuran-2-yl]methyl sulfamate]
IC50: 20 to 50 nM | inhibition at 0.111 µM (read-out: Percent Inhibition): 77%

SMILES: Nc1ncnc2c1c(Sc1ccc(C(F)(F)F)cc1)nn2[C@@H]1O[C@H](COS(N)(=O)=O)[C@@H](O)[C@@H]1F [Compound I-132, [(2R,3R,4S,5R)-5-(4-amino-3-{[4-(trifluoromethyl)phenyl]sulfanyl}-1H-pyrazolo[3,4-d]pyrimidin-1-yl)-4-fluoro-3-hydroxytetrahydrofuran-2-yl]methyl sulfamate]
IC50: 50 to 100 nM | inhibition at 0.111 µM (read-out: Percent Inhibition): 60%

SMILES: Cn1cncc1Sc1nn([C@@H]2O[C@H](COS(N)(=O)=O)[C@@H](O)[C@@H]2F)c2ncnc(N)c12 [Compound I-134, [(2R,3R,4S,5R)-5-{4-amino-3-[(1-methyl-1H-imidazol-5-yl)sulfanyl]-1H-pyrazolo[3,4-d]pyrimidin-1-yl}-4-fluoro-3-hydroxytetrahydrofuran-2-yl]methyl Sulfamate]
IC50: 100 to 500 nM | inhibition at 0.111 µM (read-out: Percent Inhibition): 37%

SMILES: Cn1cnc(Sc2nn([C@@H]3O[C@H](COS(N)(=O)=O)[C@@H](O)[C@@H]3F)c3ncnc(N)c23)c1 [Compound I-137, [(2R,3R,4S,5R)-5-{4-amino-3-[(1-methyl-1H-imidazol-4-yl)sulfanyl]-1H-pyrazolo[3,4-d]pyrimidin-1-yl}-4-fluoro-3-hydroxytetrahydrofuran-2-yl]methyl sulfamate]
IC50: 20 to 50 nM | inhibition at 0.111 µM (read-out: Percent Inhibition): 80%

SMILES: Nc1ncnc2c1c(Sc1cccnc1)nn2[C@@H]1O[C@H](COS(N)(=O)=O)[C@@H](O)[C@@H]1F [Compound I-138, {(2R,3R,4S,5R)-5-[4-amino-3-(pyridin-3-ylsulfanyl)-1H-pyrazolo[3,4-d]pyrimidin-1-yl]-4-fluoro-3-hydroxytetrahydrofuran-2-yl}methyl sulfamate]
IC50: 50 to 100 nM | inhibition at 0.111 µM (read-out: Percent Inhibition): 64%

Other lines, results leading:

IC50: < 20 nM | inhibition at 0.111 µM (read-out: Percent Inhibition): 90%
SMILES: Cc1ccnc(Sc2nn([C@@H]3O[C@H](COS(N)(=O)=O)[C@@H](O)[C@@H]3F)c3ncnc(N)c23)c1 [Compound I-114, [(2R,3R,4S,5R)-5-{4-amino-3-[(4-methylpyridin-2-yl)sulfanyl]-1H-pyrazolo[3,4-d]pyrimidin-1-yl}-4-fluoro-3-hydroxytetrahydrofuran-2-yl]methyl sulfamate]

IC50: 20 to 50 nM | inhibition at 0.111 µM (read-out: Percent Inhibition): 83%
SMILES: Nc1ncnc2c1c(Sc1cc(C(F)(F)F)ccn1)nn2[C@@H]1O[C@H](COS(N)(=O)=O)[C@@H](O)[C@@H]1F [Compound I-117, [(2R,3R,4S,5R)-5-(4-amino-3-{[4-(trifluoromethyl)pyridin-2-yl]sulfanyl}-1H-pyrazolo[3,4-d]pyrimidin-1-yl)-4-fluoro-3-hydroxytetrahydrofuran-2-yl]methyl sulfamate]

IC50: < 20 nM | inhibition at 0.111 µM (read-out: Percent Inhibition): 86%
SMILES: CC(C)(C)Sc1nn([C@@H]2O[C@H](COS(N)(=O)=O)[C@@H](O)[C@@H]2F)c2ncnc(N)c12 [Compound I-118, {(2R,3R,4S,5R)-5-[4-amino-3-(tert-butylsulfanyl)-1H-pyrazolo[3,4-d]pyrimidin-1-yl]-4-fluoro-3-hydroxytetrahydrofuran-2-yl}methyl sulfamate]

IC50: 50 to 100 nM | inhibition at 0.111 µM (read-out: Percent Inhibition): 65%
SMILES: Nc1ncnc2c1c(SCc1cccnc1)nn2[C@@H]1O[C@H](COS(N)(=O)=O)[C@@H](O)[C@@H]1F [Compound I-121, [(2R,3R,4S,5R)-5-{4-amino-3-[(pyridin-3-ylmethyl)sulfanyl]-1H-pyrazolo[3,4-d]pyrimidin-1-yl}-4-fluoro-3-hydroxytetrahydrofuran-2-yl]methyl sulfamate]

IC50: 20 to 50 nM | inhibition at 0.111 µM (read-out: Percent Inhibition): 80%
SMILES: Nc1ncnc2c1c(SC1CCCCC1)nn2[C@@H]1O[C@H](COS(N)(=O)=O)[C@@H](O)[C@@H]1F [Compound I-122, {(2R,3R,4S,5R)-5-[4-amino-3-(cyclohexylsulfanyl)-1H-pyrazolo[3,4-d]pyrimidin-1-yl]-4-fluoro-3-hydroxytetrahydrofuran-2-yl}methyl sulfamate]

IC50: 100 to 500 nM | inhibition at 0.111 µM (read-out: Percent Inhibition): 37%
SMILES: Cn1ccnc1Sc1nn([C@@H]2O[C@H](COS(N)(=O)=O)[C@@H](O)[C@@H]2F)c2ncnc(N)c12 [Compound I-125, [(2R,3R,4S,5R)-5-{4-amino-3-[(1-methyl-1H-imidazol-2-yl)sulfanyl]-1H-pyrazolo[3,4-d]pyrimidin-1-yl}-4-fluoro-3-hydroxytetrahydrofuran-2-yl]methyl sulfamate]

IC50: 20 to 50 nM | inhibition at 0.111 µM (read-out: Percent Inhibition): 71%
SMILES: Nc1ncnc2c1c(Sc1ccc(F)cc1)nn2[C@@H]1O[C@H](COS(N)(=O)=O)[C@@H](O)[C@@H]1F [Compound I-126, [(2R,3R,4S,5R)-5-{4-amino-3-[(4-fluorophenyl)sulfanyl]-1H-pyrazolo[3,4-d]pyrimidin-1-yl}-4-fluoro-3-hydroxytetrahydrofuran-2-yl]methyl sulfamate]

IC50: 50 to 100 nM | inhibition at 0.111 µM (read-out: Percent Inhibition): 52%
SMILES: Nc1ncnc2c1c(SCc1ccnnc1)nn2[C@@H]1O[C@H](COS(N)(=O)=O)[C@@H](O)[C@@H]1F [Compound I-128, [(2R,3R,4S,5R)-5-{4-amino-3-[(pyridazin-4-ylmethyl)sulfanyl]-1H-pyrazolo[3,4-d]pyrimidin-1-yl}-4-fluoro-3-hydroxytetrahydrofuran-2-yl]methyl sulfamate]

IC50: 100 to 500 nM | inhibition at 0.111 µM (read-out: Percent Inhibition): 48%
SMILES: CC(C)[C@@H](C)Sc1nn([C@@H]2O[C@H](COS(N)(=O)=O)[C@@H](O)[C@@H]2F)c2ncnc(N)c12 [Compound I-129, [(2R,3R,4S,5R)-5-(4-amino-3-{[(2R)-3-methylbutan-2-yl]sulfanyl}-1H-pyrazolo[3,4-d]pyrimidin-1-yl)-4-fluoro-3-hydroxytetrahydrofuran-2-yl]methyl sulfamate]

IC50: 20 to 50 nM | inhibition at 0.111 µM (read-out: Percent Inhibition): 67%
SMILES: Nc1ncnc2c1c(Sc1ccc(Cl)cc1)nn2[C@@H]1O[C@H](COS(N)(=O)=O)[C@@H](O)[C@@H]1F [Compound I-133, [(2R,3R,4S,5R)-5-{4-amino-3-[(4-chlorophenyl)sulfanyl]-1H-pyrazolo[3,4-d]pyrimidin-1-yl}-4-fluoro-3-hydroxytetrahydrofuran-2-yl]methyl sulfamate]

IC50: 20 to 50 nM | inhibition at 0.111 µM (read-out: Percent Inhibition): 82%
SMILES: Nc1ncnc2c1c(SCC1CC1)nn2[C@@H]1O[C@H](COS(N)(=O)=O)[C@@H](O)[C@@H]1F [Compound I-135, [(2R,3R,4S,5R)-5-{4-amino-3-[(cyclopropylmethyl)sulfanyl]-1H-pyrazolo[3,4-d]pyrimidin-1-yl}-4-fluoro-3-hydroxytetrahydrofuran-2-yl]methyl sulfamate]

IC50: 20 to 50 nM | inhibition at 0.111 µM (read-out: Percent Inhibition): 84%
SMILES: CC(C)Sc1nn([C@@H]2O[C@H](COS(N)(=O)=O)[C@@H](O)[C@@H]2F)c2ncnc(N)c12 [Compound I-139, {(2R,3R,4S,5R)-5-[4-amino-3-(isopropylsulfanyl)-1H-pyrazolo[3,4-d]pyrimidin-1-yl]-4-fluoro-3-hydroxytetrahydrofuran-2-yl}methyl Sulfamate]

IC50: 20 to 50 nM | inhibition at 0.111 µM (read-out: Percent Inhibition): 75%
SMILES: CC1CC1CSc1nn([C@@H]2O[C@H](COS(N)(=O)=O)[C@@H](O)[C@@H]2F)c2ncnc(N)c12 (stereo partly drawn) [Compound I-140]
